Results as given in US11912693B2, “Compounds for modulating S1P1 activity and methods of using the same” (TREVENA, INC., priority 2017, dated 2024).

Tests used:
[1] = biological target: T1, human sphingosine-1-phosphate receptor 1 (S1P1) (Homo sapiens (Human), UniProt P21453); assay: β-Arrestin2 recruitment assay (PathHunter), S1P1 CHO-K1 cells; format: cell-based; conditions: for hS1P1 B-arrestin2 SPAN / Emax: efficacy (SPAN) normalized to fingolimod; for hS1P1 B-arrestin2 pEC50: β-arrestin2 recruitment, S1P1 CHO-K1 cells; for Emax: CHO-K1, read-out: hS1P1 B-arrestin2 SPAN
Procedure: (§1) Stable clonal Chinese hamster ovary K1 (CHO-K1) cells co-expressing EA-β-arrestin2 and the human sphingosine-1-phosphate receptor 1 (NM_001400, S1P1) with a C-terminal Prolink™ tag were purchased from DiscoverX corporation (Cat #: 93-0207C2).
(§2) Cell lines were cultured in AssayComplete™ Media 6 (DiscoverX Corporation, Cat #: 920018GF2) at 37° C. and 5% CO2 in a humidified CO2 and temperature-controlled incubator. To begin assay plating, cells were washed with dulbecco's phosphate buffered saline (CellGro, Cat #: 21-031-CV) and lifted from the culturing flask by incubation (37° C., 5 min) with CellStripper (Cellgro, Cat #: 25-056-CI). […] Plated cells were incubated overnight at 37° C. and 5% CO2 in a humidified CO2 and temperature-controlled incubator. Detecting Inhibition of cAMP Production
Agonist-promoted β-arrestin2 recruitment to the sphingosine-1-phosphate 1 receptor was determined using the β-arrestin PathHunter®) Detection kit (DiscoverX Corporation, Cat #: 93-0001). […] In cells that stably express these fusion proteins, stimulation with a cognate agonist results in the interaction of […] and the Prolink™-tagged GPCR. This allows the complementation of the two β-galactosidase fragments and results in the formation of a functional enzyme with β-galactosidase activity. […] Following a 60 minute incubation at 37° C. and 5% CO2 in a humidified CO2 and temperature-controlled incubator, the components of the β-arrestin PathHunter® Detection kit were added as per the manufacturer's instructions. After an hour incubation at room temperature, plates were analyzed by a BMG PheraStar microplate reader.
(§3) The tables below include the efficacy of the compound as compared to a positive control, referred to as “SPAN”. These values are normalized to fingolimod, a known agonist of the sphingosine-1-phosphate 1 receptor. The tables also include potency values (pEC50) for modulating discrete receptor-mediated activities (inhibition of cAMP production and […] recruitment).
Target sequence in this assay (P21453 whole entry, looked up): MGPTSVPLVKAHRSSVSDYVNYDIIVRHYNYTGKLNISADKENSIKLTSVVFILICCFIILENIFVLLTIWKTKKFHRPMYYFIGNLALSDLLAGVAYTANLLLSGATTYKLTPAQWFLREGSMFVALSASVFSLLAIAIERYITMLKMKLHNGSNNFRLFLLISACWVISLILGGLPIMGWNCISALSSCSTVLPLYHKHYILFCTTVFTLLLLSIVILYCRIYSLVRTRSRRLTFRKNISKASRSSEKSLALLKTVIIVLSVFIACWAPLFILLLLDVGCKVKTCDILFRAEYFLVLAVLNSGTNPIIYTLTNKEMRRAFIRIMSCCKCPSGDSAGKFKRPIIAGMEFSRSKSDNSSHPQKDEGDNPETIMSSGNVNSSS
Target sequence in this assay (P32121 whole entry partner, looked up): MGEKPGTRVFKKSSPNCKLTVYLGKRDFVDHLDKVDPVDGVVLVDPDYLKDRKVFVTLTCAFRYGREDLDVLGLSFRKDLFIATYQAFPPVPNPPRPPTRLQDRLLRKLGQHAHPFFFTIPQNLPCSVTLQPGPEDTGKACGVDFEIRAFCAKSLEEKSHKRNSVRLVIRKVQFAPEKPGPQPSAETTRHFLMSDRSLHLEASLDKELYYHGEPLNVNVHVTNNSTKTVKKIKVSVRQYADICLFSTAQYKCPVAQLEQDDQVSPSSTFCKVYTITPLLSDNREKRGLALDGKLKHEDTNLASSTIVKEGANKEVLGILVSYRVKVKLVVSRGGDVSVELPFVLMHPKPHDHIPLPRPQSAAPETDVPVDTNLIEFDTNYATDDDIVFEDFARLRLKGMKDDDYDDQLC

[2] = biological target: T1, human sphingosine-1-phosphate receptor 1 (S1P1); assay: Inhibition of cAMP production (HTRF cAMP HiRange), S1P1 CHO-K1 cells; format: cell-based; conditions: for hS1P1 cAMP SPAN / Emax: efficacy (SPAN) normalized to fingolimod; for Emax: CHO-K1, read-out: hS1P1 cAMP SPAN
Procedure: as §1, §2
Target sequence in this assay (P21453 whole entry, looked up): as the sequence (P21453 whole entry, looked up) above
Agonist-promoted G-protein responses were determined by measuring changes in intracellular cAMP using the HTRF® cAMP HiRange kit (CisBio, Cat #: 62AM6PEJ) based on time-resolved fluorescence resonance energy transfer (TR-FRET) technology. […] Following a 30-minute incubation at 37° C. and 5% CO2 in a humidified CO2 and temperature-controlled incubator, the components of the cAMP HiRange kit were added as per the manufacturer's instructions. After an hour incubation at room temperature, plates were analyzed by a BMG PheraStar microplate reader.
as §3

[3] = inhibition of cAMP production, S1P1 CHO-K1 cells

2-(5-(5-(2- chlorophenyl)-1,2,4- oxadiazol-3-yl)-1H- benzo[d][1,2,3]triazol- 1-yl)-2-methylpropan- 1-ol [Compound 618]
hS1P1 B-arrestin2 SPAN [1]: <75 | hS1P1 B-arrestin2 pEC50 [1]: >5 | hS1P1 cAMP SPAN [2]: <75 | hS1P1 cAMP pEC50 [2, 3]: <6.5

Fc1cc(-c2noc(-c3ccc4c(c3)nnn4C3CCCC3)n2)ccc1C(F)(F)F [Compound 1, 1-cyclopentyl-5-{3-[3-fluoro-4-(trifluoromethyl)phenyl]-1,2,4-oxadiazol-5-yl}-1H-1,2,3-benzotriazole]
hS1P1 B-arrestin2 pEC50 [1]: <5 | hS1P1 cAMP pEC50 [2, 3]: <6.5

CCn1nnc2cc(-c3noc(-c4ccccc4Br)n3)ccc21 [Compound 2, 5-(2-bromophenyl)-3-(1-ethyl-1H-benzo[d][1,2,3]triazol-5-yl)-1,2,4-oxadiazole]
Emax [1]: < 75% | hS1P1 B-arrestin2 pEC50 [1]: >5 | Emax [2]: > 75% | EC50 ([2]; inhibition of cAMP production, S1P1 CHO-K1 cells, read-out: hS1P1 cAMP pEC50 (converted)): > 316 nM

Cc1ccncc1-c1noc(-c2ccc3nnn(CC(C)C)c3c2)n1 [Compound 3, 1-(2-methylpropyl)-6-[3-(4-methylpyridin-3-yl)-1,2,4-oxadiazol-5-yl]-1H-1,2,3-benzotriazole]
hS1P1 B-arrestin2 pEC50 [1]: >5 | hS1P1 cAMP pEC50 [2, 3]: >6.5

FC(F)(F)c1cc(-c2noc(-c3ccc4c(c3)nnn4C3CCCC3)n2)ccc1OCc1cccnc1 [Compound 4, 1-cyclopentyl-5-{3-[4-(pyridin-3-ylmethoxy)-3-(trifluoromethyl)phenyl]-1,2,4-oxadiazol-5-yl}-1H-1,2,3-benzotriazole]
Emax [1]: < 75% | hS1P1 B-arrestin2 pEC50 [1]: <5 | Emax [2]: < 75% | hS1P1 cAMP pEC50 [2, 3]: <6.5

CCCn1nnc2cc(-c3nc(-c4ccc(F)cc4)no3)ccc21 [Compound 5, 5-[3-(4-fluorophenyl)-1,2,4-oxadiazol-5-yl]-1-propyl-1H-1,2,3-benzotriazole]
hS1P1 B-arrestin2 pEC50 [1]: <5 | hS1P1 cAMP pEC50 [2, 3]: <6.5

Cc1cnc(-c2noc(-c3ccc4c(c3)nnn4C3CCOCC3)n2)cn1 [Compound 6, 5-[3-(5-methylpyrazin-2-yl)-1,2,4-oxadiazol-5-yl]-1-(oxan-4-yl)-1H-1,2,3-benzotriazole]
Emax [1]: < 75% | hS1P1 B-arrestin2 pEC50 [1]: <5 | Emax [2]: < 75% | hS1P1 cAMP pEC50 [2, 3]: <6.5

c1ccc(-c2noc(-c3ccc4c(c3)nnn4C3CCCC3)n2)cc1 [Compound 7, 1-cyclopentyl-5-(3-phenyl-1,2,4-oxadiazol-5-yl)-1H-1,2,3-benzotriazole]
hS1P1 B-arrestin2 pEC50 [1]: <5 | hS1P1 cAMP pEC50 [2, 3]: <6.5

CC(C)n1nnc2cc(-c3nc(-c4ccc(-c5ccccc5)cn4)no3)ccc21 [Compound 9, 5-[3-(5-phenylpyridin-2-yl)-1,2,4-oxadiazol-5-yl]-1-(propan-2-yl)-1H-1,2,3-benzotriazole]
hS1P1 B-arrestin2 pEC50 [1]: <5 | hS1P1 cAMP pEC50 [2, 3]: <6.5

FC(F)(F)Oc1cccc(-c2nc(-c3ccc4c(c3)nnn4C3CCCC3)no2)c1 [Compound 10, 3-(1-cyclopentyl-1H-benzo[d][1,2,3]triazol-5-yl)-5-(3-(trifluoromethoxy)phenyl)-1,2,4-oxadiazole]
hS1P1 B-arrestin2 SPAN [1]: <75 | hS1P1 B-arrestin2 pEC50 [1]: <5 | hS1P1 cAMP SPAN [2]: <75 | hS1P1 cAMP pEC50 [2, 3]: <6.5

Cc1cccc(-c2noc(-c3ccc4c(c3)nnn4C3CCCCC3)n2)c1 [Compound 11, 1-cyclohexyl-5-[3-(3-methylphenyl)-1,2,4-oxadiazol-5-yl]-1H-1,2,3-benzotriazole]
hS1P1 B-arrestin2 pEC50 [1]: <5 | hS1P1 cAMP pEC50 [2, 3]: <6.5

FC(F)(F)c1cccc(-c2nc(-c3ccc4c(c3)nnn4C3CCCC3)no2)c1 [Compound 12, 3-(1-cyclopentyl-1H-benzo[d][1,2,3]triazol-5-yl)-5-(3-(trifluoromethyl)phenyl)-1,2,4-oxadiazole]
hS1P1 B-arrestin2 pEC50 [1]: <5 | hS1P1 cAMP pEC50 [2, 3]: <6.5

Oc1ccc(-c2noc(-c3ccc4c(c3)nnn4C3CCCC3)n2)cc1 [Compound 13, 4-[5-(1-cyclopentyl-1H-1,2,3-benzotriazol-5-yl)-1,2,4-oxadiazol-3-yl]phenol]
hS1P1 B-arrestin2 pEC50 [1]: >5 | hS1P1 cAMP pEC50 [2, 3]: >6.5

CC(C)Oc1ccc(-c2nc(-c3ccc4c(c3)nnn4C3CCCC3)no2)cc1C(F)(F)F [Compound 14, 3-(1-cyclopentyl-1H-benzo[d][1,2,3]triazol-5-yl)-5-(4-isopropoxy-3-(trifluoromethyl)phenyl)-1,2,4-oxadiazole]
Emax [1]: < 75% | hS1P1 B-arrestin2 pEC50 [1]: >5 | Emax [2]: < 75% | hS1P1 cAMP pEC50 [2, 3]: >6.5

CC(C)n1nnc2cc(-c3nc(-c4ccc(Oc5ccccc5)cc4)no3)ccc21 [Compound 15, 5-[3-(4-phenoxyphenyl)-1,2,4-oxadiazol-5-yl]-1-(propan-2-yl)-1H-1,2,3-benzotriazole]
hS1P1 B-arrestin2 pEC50 [1]: <5 | hS1P1 cAMP pEC50 [2, 3]: <6.5

CSc1ccccc1-c1nc(-c2ccc3c(c2)nnn3C2CCCC2)no1 [Compound 16, 3-(1-cyclopentyl-1H-benzo[d][1,2,3]triazol-5-yl)-5-(2-(methylthio)phenyl)-1,2,4-oxadiazole]
hS1P1 B-arrestin2 pEC50 [1]: >5 | hS1P1 cAMP pEC50 [2, 3]: <6.5

CC(C)n1nnc2cc(-c3nc(-c4ccccc4Cl)no3)ccc21 [Compound 17, 5-[3-(2-chlorophenyl)-1,2,4-oxadiazol-5-yl]-1-(propan-2-yl)-1H-1,2,3-benzotriazole]
hS1P1 B-arrestin2 pEC50 [1]: >5 | hS1P1 cAMP pEC50 [2, 3]: >6.5

CC(C)n1nnc2cc(-c3noc(C4CCC4)n3)ccc21 [Compound 18, 5-(5-cyclobutyl-1,2,4-oxadiazol-3-yl)-1-(propan-2-yl)-1H-1,2,3-benzotriazole]
hS1P1 B-arrestin2 pEC50 [1]: <5 | hS1P1 cAMP pEC50 [2, 3]: <6.5

CC(C)Oc1ccc(-c2noc(-c3ccc4c(c3)nnn4C(C)C)n2)cc1C(F)(F)F [Compound 20, 3-(4-isopropoxy-3-(trifluoromethyl)phenyl)-5-(1-isopropyl-1H-benzo[d][1,2,3]triazol-5-yl)-1,2,4-oxadiazole]
hS1P1 B-arrestin2 pEC50 [1]: >5 | hS1P1 cAMP pEC50 [2, 3]: >6.5

CC(C)n1nnc2cc(-c3nc(-c4ccccc4F)co3)ccc21 [Compound 21, 5-[4-(2-fluorophenyl)-1,3-oxazol-2-yl]-1-(propan-2-yl)-1H-1,2,3-benzotriazole]
hS1P1 B-arrestin2 pEC50 [1]: <5 | hS1P1 cAMP pEC50 [2, 3]: <6.5

CC(C)n1nnc2cc(-c3noc(-c4cccc(COc5ccccc5)c4)n3)ccc21 [Compound 23, 3-(1-isopropyl-1H-benzo[d][1,2,3]triazol-5-yl)-5-(3-(phenoxymethyl)phenyl)-1,2,4-oxadiazole]
hS1P1 B-arrestin2 pEC50 [1]: <5 | hS1P1 cAMP pEC50 [2, 3]: <6.5

OCCCn1nnc2cc(-c3noc(-c4ccccc4Br)n3)ccc21 [Compound 24, 3-(5-(5-(2-bromophenyl)-1,2,4-oxadiazol-3-yl)-1H-benzo[d][1,2,3]triazol-1-yl)propan-1-ol]
hS1P1 B-arrestin2 pEC50 [1]: <5 | hS1P1 cAMP pEC50 [2, 3]: <6.5

CC(C)c1ccc(-c2nc(-c3ccc4c(c3)nnn4C(C)C)no2)cn1 [Compound 25, 3-(1-isopropyl-1H-benzo[d][1,2,3]triazol-5-yl)-5-(6-isopropylpyridin-3-yl)-1,2,4-oxadiazole]
hS1P1 B-arrestin2 pEC50 [1]: <5 | hS1P1 cAMP pEC50 [2, 3]: <6.5

CCC1(CC)CC(=O)c2cc(-c3nc(-c4ccncc4)no3)ccc2O1 [Compound 27, 2,2-diethyl-6-[3-(pyridin-4-yl)-1,2,4-oxadiazol-5-yl]-3,4-dihydro-2H-1-benzopyran-4-one]
Emax [1]: < 75% | hS1P1 B-arrestin2 pEC50 [1]: >5 | Emax [2]: > 75% | hS1P1 cAMP pEC50 [2, 3]: <6.5
